This assay has as its target Sodium- and chloride-dependent creatine transporter 1 (Homo sapiens) (UniProt P48029). In words: creatine transporter SLC6A8 activation, membrane depolarization – cell-based, membrane potential dye, HEK-293 JumpIN, SLC6A8 overexpression, dose response (AID 1794823). To be noted: HEK-293 JumpIN SLC6A8, FLIPR membrane potential fluorescence.

Sodium- and chloride-dependent creatine transporter 1 (Homo sapiens), sequence (P48029 whole entry, looked up): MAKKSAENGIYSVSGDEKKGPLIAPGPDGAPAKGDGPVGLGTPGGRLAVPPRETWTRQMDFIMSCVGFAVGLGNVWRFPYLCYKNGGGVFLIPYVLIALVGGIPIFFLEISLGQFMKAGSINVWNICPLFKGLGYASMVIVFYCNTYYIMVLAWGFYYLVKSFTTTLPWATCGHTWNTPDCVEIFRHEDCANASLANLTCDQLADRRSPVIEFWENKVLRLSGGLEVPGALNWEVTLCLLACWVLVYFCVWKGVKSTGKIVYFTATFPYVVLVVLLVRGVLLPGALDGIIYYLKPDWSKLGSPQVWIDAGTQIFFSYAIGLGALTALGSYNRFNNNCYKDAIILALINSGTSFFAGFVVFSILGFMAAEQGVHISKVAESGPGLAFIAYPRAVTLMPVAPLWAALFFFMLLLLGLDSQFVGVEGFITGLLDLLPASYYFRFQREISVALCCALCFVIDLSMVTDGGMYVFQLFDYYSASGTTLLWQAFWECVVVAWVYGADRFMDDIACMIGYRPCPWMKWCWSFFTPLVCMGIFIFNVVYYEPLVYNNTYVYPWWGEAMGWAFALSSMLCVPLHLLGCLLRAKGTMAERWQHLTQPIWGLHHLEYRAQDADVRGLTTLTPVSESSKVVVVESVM

The term EC50 denotes the concentration that produces a half-maximal response. As for `CN(CC(=O)O)C(=N)N`, the EC50 was 5 µM.

The values are drawn from PubChem BioAssay AID1794823.
